Test results published in patent US6403788B1, “Non-genotoxic metalloporphyrins as synthetic catalytic scavengers of reactive oxygen species” (Eukarion, Inc., priority 2000, dated 2002).

Columns and labels:
[1] = Superoxide dismutase activity, xanthine-xanthine oxidase / cytochrome C; assay type: biochemical; details: reciprocal of IC50; xanthine 60 μM, xanthine oxidase 0.009 units/ml, cytochrome C 27.8 μM
Protocol: Superoxide Dismutase Activity was measured by incubating the compound with a superoxide generating system (Xanthine, 60 μM-Xanthine Oxidase, 0.009 units/ml) and a detector molecule (Cytochrome C, 27.8 μM). Upon reacting with a molecule of superoxide, Cytochrome C undergoes a spectrum-shift which can be detected as an increase in absorbance at 550 nm. In this assay procedure, the reactant concentrations were adjusted to give a reaction rate close to 0.1 AU/min. at 2-3 min. after the reaction began. Addition of compounds with Superoxide Dismutase activity reduce the rate of absorbance change. Compounds were assayed at several concentrations (typically at 0, 2, 4, and 8 μM) and the resulting rates were graphed and fitted to a linear regression formula. The linear regression formula was then solved to determine the concentration of compound required to reduce the reaction rate to 50% of the rate without compound present (IC50).

[2] = Catalase activity, hydrogen peroxide consumed at 20 minutes; assay type: biochemical; details: over 20 minutes; 10 μM compound, 100 μM hydrogen peroxide, 40 mM sodium phosphate pH 7.4
Protocol: (§1) Catalase activity was measured by incubating the sample compound with hydrogen peroxide and determining the amount of hydrogen peroxide remaining after a period of time using a colorimetric peroxidase-coupled assay method. 10 μM sample compound and 100 μM hydrogen peroxide in 40 mM sodium phosphate pH 7.4 were incubated together at ambient temperature in a multi-well plate. After the desired reaction period had elapsed, 20 μl of peroxidase/ABTS reagent was added (peroxidase/ABTS reagent contained 100 μl of 50 mM Na phosphate, pH 7.4, 1 mg horseradish peroxidase (1310 U/mg) and […]). After five minutes, absorbance at 750 nm was determined. The amount of hydrogen peroxide remaining was calculated based on a standard curve. To compare rates of catalase reaction, the amount of hydrogen peroxide consumed at 20 minutes was determined (See table III). It was also of interest to determine the total number of turnovers completed by the compound before inactivation by hydrogen peroxide. This was assayed under similar conditions, except that 15.8 μM compound was combined with 1582 μM hydrogen peroxide in 5 mM Na phosphate, pH 7.4. Reactions were allowed to proceed to completion and then the amount of hydrogen peroxide remaining was determined as described above. Results showing […] in the turnover assay (nmoles hydrogen peroxide per nmole compound) are also shown in Table III.

[3] = Peroxidase activity, ABTS oxidation; assay type: biochemical; details: 10 μM compound, 200 μM hydrogen peroxide, 500 μM ABTS, pH 8.1, 740 nm
Protocol: Peroxidase activity was measured by incubating 10 μM compound, 200 μM hydrogen peroxide and 500 μM ABTS in 50 mM sodium phosphate, pH 8.1. The rate of ABTS oxidation was monitored at 740 nm and initial rates (change in absorbance per min.) determined.

[4] = Catalase turnover assay, total hydrogen peroxide consumed before inactivation; assay type: biochemical; details: to completion, 15.8 μM compound, 1582 μM hydrogen peroxide, 5 mM Na phosphate pH 7.4
Protocol: as §1

[5] = tested on: ΦX 174 DNA Plasmid (Form I); assay: Cleavage of ΦX 174 DNA plasmid (form I), activation with H2O2; assay type: biochemical, phage ΦX 174; details: DNA 3.5 nM, compound 1 μM, H2O2 1 mM
Text: (§2) The DNA cleavage activity was quantified in terms of number of single-strand breaks per DNA molecule according to the equation […], Io=% form I (supercoiled DNA) in the DNA control, and I=% form I in the experiment (see Bernadou et al, Biochemistry, 28: 7268-7275, (1989)). This assay is very sensitive and is able to detect very low levels of DNA activity. S values less than S=1.0 are indicative of very low DNA cleavage activity when the compounds are at a concentration of equal to or less than 1000 nM and KHSO5 is present at a concentration of equal to or less than 100 μM.
(§3) ΦX 174 DNA digestion conditions for standard experiments were as follows: commercially available DNA was diluted to 50 μg/mL in phosphate buffer (10 mM, pH 7.5). The reaction involved 5 μL of ΦX 174 DNA (50 μg/mL, 74.8 μM in base pairs), 5 μL of 40 mM phosphate buffer, pH 7.5 with 400 mM NaCl, 5 μL of metalloporphyrin in double-distilled water or 5 μL of iron-bleomycin complex in double-distilled water, and 5 μL of KHSO5 or 5 μL of H2O2 or 5 μL of ascorbate in double-distilled water. Preincubation of DNA and metalloporphyrins or iron-bleomycin complex was performed for about 15 min. The digestion time in the presence of KHSO5 was 10 min, of H2O2 was 30 min and of ascorbate was 30 min at 20° C. DNA cleavage was monitored by agarose gel electrophoresis. Reactions with KHSO5 were first quenched by 2 μL of 100 mM Hepes buffer, pH 8. In all cases, reactions were quenched by 5 μL of a stopping reagent. The stopping reagent consisted of 250 mM Hepes buffer, pH 7.4, containing 75% glycerol and 0.05% bromophenol blue. Reaction mixtures were then run in 0.8% agarose slab horizontal gel containing ethidium bromide […], at constant current (25 mA for 15h), in 89 mM Tris-borate buffer and 2.5 mM EDTA pH 8.3. Bands were located by WV light (254 nm), photographed, and quantitated by microdensitometry. The correction coefficient 1.47±0.30 was used for decreased stainability of form I DNA vs form II DNA and form III DNA.

[6] = tested on: ΦX 174 DNA Plasmid (Form I); assay: Cleavage of ΦX 174 DNA plasmid (form I), compound alone or activated with KHSO5; assay type: biochemical, phage ΦX 174
Text: as §2, §3

[7] = tested on: ΦX 174 DNA Plasmid (Form I); assay: Cleavage of ΦX 174 DNA plasmid (form I), activation with ascorbate in the presence of air; assay type: biochemical, phage ΦX 174; details: for S (single-strand breaks per DNA molecule) / form % I / form % II / form % III: DNA 3.5 nM
Text: as §2, §3

[8] = DNA 3.5 nM, compound 1 μM, KHSO5 100 μM
[9] = compound 10 nM, without ascorbate (Table II)

Question: For O=C(O)c1ccc(-c2c3nc(c(-c4ccc(C(=O)O)cc4)c4ccc([n-]4)c(-c4ccc(C(=O)O)cc4)c4nc(c(-c5ccc(C(=O)O)cc5)c5ccc2[n-]5)C=C4)C=C3)cc1.[Mn+3] [MnTBAP, Mn(III) tetrakis (4-benzoic acid) porphyrin, reference compound], which “Cyt C SOD 1/(IC50, μM)” value [1] is on record?
Answer: 0.015 µM⁻¹

Question: And the “CATALASE* Rate at 20 mins.” value [2]?
Answer: 0.4 nmole H2O2/nmole Structural Formula compound

Question: And the “PEROXIDASE Initial Rate” value [3]?
Answer: 0.0304 change in absorbance per min.

Question: What about the “CATALASE** H2O2 Consumption” value [4] of the same molecule?
Answer: 38.5 nmole H2O2/nmole Structural Formula compound

Question: With CC[NH+](CC)CCNS(=O)(=O)c1ccc(C2=C3C=CC4=[N+]3[Mn-]35[n]6c2ccc6C(c2ccc(S(=O)(=O)NCC[NH+](CC)CC)cc2)=C2C=CC(=[N+]23)C(c2ccc(S(=O)(=O)NCC[NH+](CC)CC)cc2)=c2ccc([n]25)=C4c2ccc(S(=O)(=O)NCC[NH+](CC)CC)cc2)cc1.[Cl-].[Cl-].[Cl-].[Cl-].[Cl-] [Structural Formula II, meso-tetrakis[4-(N-(2-(N,N-diethylammonio)ethyl)aminosulfonyl)phenyl]porphyrinato diaqua-manganese (III) pentachloride] as the molecule, how does the “Cyt C SOD 1/(IC50, μM)” value [1] read?
Answer: 0.034 µM⁻¹

Question: And the “CATALASE* Rate at 20 mins.” value [2]?
Answer: 1.6 nmole H2O2/nmole Structural Formula compound

Question: And the “PEROXIDASE Initial Rate” value [3]?
Answer: 0.0151 change in absorbance per min.

Question: What about the “CATALASE** H2O2 Consumption” value [4] of the same molecule?
Answer: 42.4 nmole H2O2/nmole Structural Formula compound

Question: Which “Cyt C SOD 1/(IC50, μM)” value [1] does the source give for CC[NH+](CC)CCNS(=O)(=O)c1ccc(-c2c3nc(c(-c4ccc(S(=O)(=O)NCC[NH+](CC)CC)cc4)c4ccc([n-]4)c(-c4ccc(S(=O)(=O)NCC[NH+](CC)CC)cc4)c4nc(c(-c5ccc(S(=O)(=O)NCC[NH+](CC)CC)cc5)c5ccc2[n-]5)C=C4)C=C3)cc1.O.O.[Cl-].[Cl-].[Cl-].[Cl-].[Cl-].[Fe+3] [Structural Formula III, meso-tetrakis[4-(N-(2-(N,N-diethylammonio)ethyl)aminosulfonyl)phenyl]porphyrinato diaqua-iron (III) pentachloride] here?
Answer: 0.045 µM⁻¹

Question: And the “CATALASE* Rate at 20 mins.” value [2]?
Answer: 0.3 nmole H2O2/nmole Structural Formula compound

Question: And the “PEROXIDASE Initial Rate” value [3]?
Answer: 0.0363 change in absorbance per min.

Question: What about the “CATALASE** H2O2 Consumption” value [4] of the same molecule?
Answer: 4.7 nmole H2O2/nmole Structural Formula compound

Question: What does the source list for CC(=O)[O-].CC(=O)[O-].CC(=O)[O-].CC(=O)[O-].CC(=O)[O-].CC[N+](C)(CC)CCNS(=O)(=O)c1ccc(-c2c3nc(c(-c4ccc(S(=O)(=O)NCC[N+](C)(CC)CC)cc4)c4ccc([n-]4)c(-c4ccc(S(=O)(=O)NCC[N+](C)(CC)CC)cc4)c4nc(c(-c5ccc(S(=O)(=O)NCC[N+](C)(CC)CC)cc5)c5ccc2[n-]5)C=C4)C=C3)cc1.O.O.[Mn+3] [Structural Formula VI, meso-tetrakis[4-(N-(2-(N,N,N-diethylmethylammonio)ethyl)aminosulfonyl)phenyl]porphyrinato diaqua-manganese (III) pentaacetate]?
Answer: Cyt C SOD 1/(IC50, μM) [1]: 0.041 µM⁻¹; CATALASE* Rate at 20 mins. [2]: 2.4 nmole H2O2/nmole Structural Formula compound; PEROXIDASE Initial Rate [3]: 0.0011 change in absorbance per min.; CATALASE** H2O2 Consumption [4]: 42 nmole H2O2/nmole Structural Formula compound

Question: Which results are given for CC(=O)[O-].CC(=O)[O-].CC(=O)[O-].CC(=O)[O-].CC(=O)[O-].CC[N+](C)(CC)CCNS(=O)(=O)c1c(C)cc(C)c(-c2c3nc(c(-c4c(C)cc(C)c(S(=O)(=O)NCC[N+](C)(CC)CC)c4C)c4ccc([n-]4)c(-c4c(C)cc(C)c(S(=O)(=O)NCC[N+](C)(CC)CC)c4C)c4nc(c(-c5c(C)cc(C)c(S(=O)(=O)NCC[N+](C)(CC)CC)c5C)c5ccc2[n-]5)C=C4)C=C3)c1C.O.O.[Mn+3] [Structural Formula VII, meso-tetrakis[3-(N-(2-(N,N,N-diethylmethylammonio)ethyl)aminosulfonyl)-2,4,6-trimethylphenyl]porphyrinato diaqua-manganese (III) pentaacetate]?
Answer: Cyt C SOD 1/(IC50, μM) [1]: 0.013 µM⁻¹; CATALASE* Rate at 20 mins. [2]: 1.3 nmole H2O2/nmole Structural Formula compound; PEROXIDASE Initial Rate [3]: 0.0025 change in absorbance per min.; CATALASE** H2O2 Consumption [4]: 166.6 nmole H2O2/nmole Structural Formula compound

Question: For CC(=O)[O-].CC(=O)[O-].CC(=O)[O-].CC(=O)[O-].CC(=O)[O-].CC[N+](C)(CC)CCNS(=O)(=O)c1c(C)cc(C)c(C2=C3C=CC4=[N+]3[Fe-]35[n]6c2ccc6C(c2c(C)cc(C)c(S(=O)(=O)NCC[N+](C)(CC)CC)c2C)=C2C=CC(=[N+]23)C(c2c(C)cc(C)c(S(=O)(=O)NCC[N+](C)(CC)CC)c2C)=c2ccc([n]25)=C4c2c(C)cc(C)c(S(=O)(=O)NCC[N+](C)(CC)CC)c2C)c1C [Structural Formula VIII, meso-tetrakis[3-(N-(2-(N,N,N-diethylmethylammonio)ethyl)aminosulfonyl)-2,4,6-trimethylphenyl]porphyrinato diaqua-iron(III) pentaacetate], which “S (single-strand breaks per DNA molecule)” value [5] is on record?
Answer: 0.13 SSBs

Question: What about the “form % I” value [5] of the same molecule?
Answer: 86%

Question: What about the “form % II” value [5] of the same molecule?
Answer: 14%

Question: And the “form % III” value [5]?
Answer: 0%

Question: What about the “S (single-strand breaks per DNA molecule)” value [6, 8] of the same molecule?
Answer: 0.03 SSBs

Question: And the “form % I” value [6, 8]?
Answer: 90%

Question: What about the “form % II” value [6, 8] of the same molecule?
Answer: 10%

Question: What about the “form % III” value [6, 8] of the same molecule?
Answer: 0%

Question: What about the “DNA cleavage activity in oxidative medium” value ([6]; oxidative medium (KHSO5)) of the same molecule?
Answer: do not exhibit any significant DNA cleavage activity

Question: What about the “S (single-strand breaks per DNA molecule)” value ([7]; compound 1 μM, Asc. 1 mM) of the same molecule?
Answer: 1.61 SSBs

Question: What about the “form % I” value ([7]; compound 1 μM, Asc. 1 mM) of the same molecule?
Answer: 43%

Question: What about the “form % II” value ([7]; compound 1 μM, Asc. 1 mM) of the same molecule?
Answer: 57%

Question: What about the “form % III” value ([7]; compound 1 μM, Asc. 1 mM) of the same molecule?
Answer: 0%

Question: With Bleomycin [reference compound] as the molecule, how does the “DNA cleavage” value ([7]; 1 μM concentration, ascorbate) read?
Answer: all DNA is cleaved in small fragments

Question: And the “S (single-strand breaks per DNA molecule)” value ([7]; compound 10 nM, Asc. 1 mM)?
Answer: 7.79 SSBs

Question: What about the “form % I” value ([7]; compound 10 nM, Asc. 1 mM) of the same molecule?
Answer: 7%

Question: What about the “form % II” value ([7]; compound 10 nM, Asc. 1 mM) of the same molecule?
Answer: 71%

Question: What about the “form % III” value ([7]; compound 10 nM, Asc. 1 mM) of the same molecule?
Answer: 22%

Question: What about the “S (single-strand breaks per DNA molecule)” value [7, 9] of the same molecule?
Answer: 0.01 SSBs

Question: What about the “form % I” value [7, 9] of the same molecule?
Answer: 94%

Question: And the “form % II” value [7, 9]?
Answer: 6%

Question: And the “form % III” value [7, 9]?
Answer: 0%

Question: What about the “times more active in DNA cleavage than Structural Formula V” value ([7]; same concentration (10 nM), ascorbate 1 mM, from experiments 2, 3, 7 and 8) of the same molecule?
Answer: 768 times
